Assay results from US20240180956A1, “A VAGINAL CONTRACEPTIVE COMPOSITION FOR REINFORCEMENT OF THE CERVICAL MUCUS BARRIER PROPERTIES” (CIRQLE BIOMEDICAL CONTRACEPTION APS, priority 2021, published 2024).

Tested on: human ovulatory cervical mucus
Assay: Sperm penetration through human cervical ovulatory mucus (capillary assay, phase contrast microscopy)
Format: cell-based
Settings: PLL 5 mg/mL in 32.5 mM lactic acid; 30 minutes after exposure to undiluted sperm; vs lactic acid solution alone or untreated
Protocol: All chitosans were dissolved in a 100 mM or a 32.5 mM lactic acid solution at a concentration of 0.5% (w/v chitosan) and adjusted to pH 5.5 (pH±0.02) by the use of 0.1 or 1 M hydrochloric acid (HCl, Merck KgaA, Germany), and 0.1 or 1 M sodium hydroxide (NaOH, CPAchem Ltd., Bulgaria) or 50% NaOH (Sigma-Aldrich, USA).
Semen samples of patients and volunteers collected at the Andrology, Sexual Medicine, Transmedicine, clinic (ANOVA, Karolinska University Hospital, Sweden) were run through standard semen kinematic analyses and sperm penetration assays no later than 3 h after collection. Data were obtained for the collection time, abstinence time, and semen volume.
Semen was gently liquefied for 30 min on a rocker in an incubation chamber heated up to 37° C., after complete collection of ejaculates by masturbation. The viscosity of semen was determined visually and by pipetting. Semen was microscopically analysed by pipetting 6 μl of specimen in pre-warmed Leja® (Netherland) counting chamber slides (20 micron). Subsequently, specimens were assessed via clinical ECLIPSE 50i microscope (Nikon Instruments, Japan) equipped with stage heater MS 100 (37° C., Linkam Scientific Instruments, UK), 10× objective (Ph1) and 0.5× charge coupled device camera UI-1540LE-M-HQ (IDS Imaging Development Systems GmbH, Germany) with total magnification of 5×. […]

Question: With poly-L-lysine [PLL] as the substance, how does the “sperm detected throughout the capillary filled with ovulatory cervical mucus” value read?
Answer: Less sperm was detected
